Here are results for five molecules from patent publication EP3315028B1, “USE OF INHIBITORS OF NLP PROTEINS AS PHYTOPHARMACEUTICALS FOR PLANT PATHOGEN CONTROL” (Kemijski Institut, priority 2016, dated 2018).

Experiment [1] has as its target T1, NLPPya (Pythium aphanidermatum, UniProt Q9SPD4). The experiment is described as follows: Infiltration of NLPs into tobacco leaves in the presence of compounds (inhibition of necrosis). Type of experiment: in vivo. Particulars: compound at the final 1 mM concentration; NLPPya 250 nM; tobacco leaves (Figure 5). How it is done: NLP proteins: NLPPya from the oomycete, Pythium aphanidermatum, was prepared in recombinant form by the use of heterologous expression system for protein production in Escherichia coli. NLPPp from oomycete Phytophthora parasitica was prepared in yeast Pichia pastoris. Proteins were purified with chromatographic procedures and stored in water solutions at -20 °C.
We have injected 50 µL of solution.

In experiment [2] the target is T1, NLPPya. The experiment is described as follows: Interactions of compounds with NLP proteins determined by surface plasmon resonance (NLPPya). It is filed as binding. As to conditions: Biacore T100, CM5 chip, Steady State Affinity model; 50 mM MES, 140 mM NaCl, 5 % DMSO, pH 5,8; 25 °C; n=number of titrations. For orientation: SPR reads the build-up and loss of mass on a sensor chip optically.

For another experiment, the target named is T2, NLPPp (Phytophthora nicotianae, UniProt Q9AT28).
T2 construct: made in house; host or cells: Pichia pastoris
T2 sequence (Q9AT28 20-237): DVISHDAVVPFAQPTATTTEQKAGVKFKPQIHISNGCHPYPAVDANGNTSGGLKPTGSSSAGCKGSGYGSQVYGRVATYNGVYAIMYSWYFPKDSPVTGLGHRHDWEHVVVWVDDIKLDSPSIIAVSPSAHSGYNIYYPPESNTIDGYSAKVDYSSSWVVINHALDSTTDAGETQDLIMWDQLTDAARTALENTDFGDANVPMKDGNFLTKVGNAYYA
The experiment is described as follows: Interactions of compounds with NLP proteins determined by surface plasmon resonance (NLPPp). As to conditions: Biacore T100, CM5 chip, Steady State Affinity model; 50 mM MES, 140 mM NaCl, 5 % DMSO, pH 5,8; 25 °C; n=number of titrations. Type of experiment: binding, Phytophthora parasitica.

T1 sequence (Q9SPD4 18-234 limits assumed): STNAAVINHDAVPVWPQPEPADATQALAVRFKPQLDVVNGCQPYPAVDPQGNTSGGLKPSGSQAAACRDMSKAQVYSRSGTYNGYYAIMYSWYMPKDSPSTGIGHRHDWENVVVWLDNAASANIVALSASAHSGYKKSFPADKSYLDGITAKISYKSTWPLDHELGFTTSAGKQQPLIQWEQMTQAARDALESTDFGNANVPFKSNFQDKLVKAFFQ

Regarding `Cc1ccc2occ(C3NC(C(=O)O)CS3)c(=O)c2c1` (stereo not drawn) [Compound I, 2-(6-methyl-4-oxochromen-3-yl)-1,3-thiazolidin-3-ium-4-carboxylate], the “necrosis after infiltration of NLP proteins in the presence of compound” value on NLPPya [1] is reported as “Necrosis was not visible”.
As a reminder, the Kd is the concentration at which binding is half-saturated. The low end stands for tighter binding, the high end for weaker binding. Consider `COc1ccc(Nc2ccccc2C(=O)O)cc1` [Compound IIa, 2-[(4-methoxyphenyl)amino]benzoic acid], for which the Kd on NLPPya [2] stood at 131 µM; at NLPPp, 71.9 µM. The “necrosis after infiltration of NLP proteins in the presence of compound” value on NLPPya [1] is recorded as “Necrosis was not visible”.
`Cc1ccc(Nc2ccccc2C(=O)O)cc1` [IIb, 2-[(4-methylphenyl)amino]benzoic acid]: the equilibrium dissociation constant (Kd) at NLPPya [2] came to 98 µM; on NLPPp, 83.2 µM.
For the molecule `O=C(O)c1ccccc1Nc1cccc(F)c1` [IIc, N-(3-Fluorophenyl)anthranilic acid], the dissociation constant (Kd) at NLPPya [2] was determined as 77.3 µM; on NLPPp, 62.4 µM.
Turning to `Cc1ccc(C)c(Nc2c(C(=O)O)cc([N+](=O)[O-])cc2[N+](=O)[O-])c1` [IId, 2-[(2,5-dimethylphenyl)amino]-3,5-dinitrobenzoic acid], at NLPPp, the Kd is 39.7 µM.
